Laboratory results: patent publication US20210255193A1, “LYSINE REACTIVE PROBES AND USES THEREOF” (The Scripps Research Institute, priority 2017, published 2021)

Assays:
Test in all cases: competitive isoTOP-ABPP
Type in all cases: binding
[1] = target: T1, CNOT4 CCR4-NOT transcription complex subunit 4 (Homo sapiens, UniProt O95628); conditions: 50 uM, in vitro; for isoTOP-ABPP reactivity ratio at lysine O95628_K134: 231 sol; for isoTOP-ABPP ratio (R) at liganded lysine O95628_K134: sol, 231
T1 construct: isoTOP-ABPP experiments performed in cell lysates (in vitro); endogenous in cells; host or cells: MDA-MB-231 soluble lysate
T1 sequence (O95628 1-575): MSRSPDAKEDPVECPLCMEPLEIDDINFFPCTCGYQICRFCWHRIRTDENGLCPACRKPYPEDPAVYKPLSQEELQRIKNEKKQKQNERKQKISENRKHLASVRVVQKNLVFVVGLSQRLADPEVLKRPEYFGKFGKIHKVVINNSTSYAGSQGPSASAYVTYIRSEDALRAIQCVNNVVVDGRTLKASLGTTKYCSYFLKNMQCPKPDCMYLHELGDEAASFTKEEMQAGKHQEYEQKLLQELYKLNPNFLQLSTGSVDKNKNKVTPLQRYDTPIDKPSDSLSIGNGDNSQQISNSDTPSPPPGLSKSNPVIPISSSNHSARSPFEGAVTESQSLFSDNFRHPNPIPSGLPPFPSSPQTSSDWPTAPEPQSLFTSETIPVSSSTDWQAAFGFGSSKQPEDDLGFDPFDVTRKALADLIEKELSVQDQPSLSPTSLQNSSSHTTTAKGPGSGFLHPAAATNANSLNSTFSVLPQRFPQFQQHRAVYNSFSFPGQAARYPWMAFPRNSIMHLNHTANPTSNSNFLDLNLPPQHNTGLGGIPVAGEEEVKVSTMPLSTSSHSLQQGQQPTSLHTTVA
How it was run: (§1)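 Readout: isotopic light/heavy MS1 peak-area ratio (R, DMSO heavy over compound light), median across peptides sharing a modified lysine. Lysate received fragment (activated esters 50 μM, guanidinylating agents 100 μM final) or DMSO, then 0.1 mM STP-alkyne probe for 1 h at ambient temperature.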

[2] = target: T2, MTOR Serine/threonine-protein kinase mTOR (Homo sapiens, UniProt P42345); conditions: 50 uM, in vitro; for isoTOP-ABPP reactivity ratio at lysine P42345_K2066: 231 sol; for isoTOP-ABPP ratio (R) at liganded lysine P42345_K2066: sol, 231
T2 construct: isoTOP-ABPP experiments performed in cell lysates (in vitro); endogenous in cells; host or cells: soluble proteome of human cancer cell lines (MDA-MB-231; Ramos and Jurkat also prepared)
How it was run: as §1

[3] = target: T3, PFKM 6-phosphofructokinase, muscle type (Homo sapiens, UniProt P08237); conditions: 50 uM, in vitro; for isoTOP-ABPP reactivity ratio at lysine P08237_K678: 231 sol; for isoTOP-ABPP ratio (R) at liganded lysine P08237_K678: sol, 231
T3 construct: isoTOP-ABPP experiments performed in cell lysates (in vitro); endogenous in cells; host or cells: MDA-MB-231 soluble lysate
T3 sequence (P08237 1-780): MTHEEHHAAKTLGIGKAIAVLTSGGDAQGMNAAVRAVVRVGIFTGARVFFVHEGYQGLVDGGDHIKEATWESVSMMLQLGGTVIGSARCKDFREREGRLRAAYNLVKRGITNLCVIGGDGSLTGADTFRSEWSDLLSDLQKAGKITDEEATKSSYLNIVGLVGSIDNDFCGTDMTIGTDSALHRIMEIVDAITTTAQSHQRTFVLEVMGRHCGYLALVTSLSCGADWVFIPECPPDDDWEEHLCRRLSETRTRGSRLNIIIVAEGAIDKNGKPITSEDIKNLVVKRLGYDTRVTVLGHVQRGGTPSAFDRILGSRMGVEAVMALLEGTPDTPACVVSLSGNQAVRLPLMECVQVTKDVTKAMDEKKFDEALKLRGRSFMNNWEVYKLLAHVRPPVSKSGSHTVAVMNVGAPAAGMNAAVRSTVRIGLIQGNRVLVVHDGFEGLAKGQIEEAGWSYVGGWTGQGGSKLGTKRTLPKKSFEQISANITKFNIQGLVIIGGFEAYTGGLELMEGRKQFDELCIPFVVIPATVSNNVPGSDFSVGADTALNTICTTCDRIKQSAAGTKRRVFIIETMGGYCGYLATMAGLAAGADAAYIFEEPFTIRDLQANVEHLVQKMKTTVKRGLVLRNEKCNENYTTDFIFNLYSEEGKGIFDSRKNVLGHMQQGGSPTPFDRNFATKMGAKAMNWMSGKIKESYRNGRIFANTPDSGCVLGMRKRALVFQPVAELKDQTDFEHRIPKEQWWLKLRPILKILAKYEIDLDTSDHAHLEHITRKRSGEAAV
How it was run: as §1

| Structure (SMILES) | isoTOP-ABPP reactivity ratio at lysine O95628_K134 [1] | isoTOP-ABPP reactivity ratio at lysine P42345_K2066 [2] | isoTOP-ABPP reactivity ratio at lysine P08237_K678 [3] | isoTOP-ABPP ratio (R) at liganded lysine O95628_K134 [1] | isoTOP-ABPP ratio (R) at liganded lysine P42345_K2066 [2] | isoTOP-ABPP ratio (R) at liganded lysine P08237_K678 [3] |
| --- | --- | --- | --- | --- | --- | --- |
| O=C(CN1C(=O)c2ccccc2C1=O)Oc1c(F)c(F)c(F)c(F)c1F [fragment 27, Pentafluorophenyl 2-(1,3-dioxoisoindolin-2-yl)acetate] | 1.2 | 2.5 | 2.6 |  |  |  |
| CCn1cc(C(=O)Oc2c(F)c(F)c(F)c(F)c2F)c(=O)c2ccc(C)nc21 [fragment 28, Pentafluorophenyl 1-ethyl-7-methyl-4-oxo-1,4-dihydro-1,8-naphthyridine-3-carboxylate] | 1.0 | 1.0 | 1.3 |  |  |  |
| O=C(CCc1cn(-c2ccccc2)nc1-c1ccccc1)Oc1ccc([N+](=O)[O-])cc1[N+](=O)[O-] [fragment 29, 2,4-Dinitrophenyl 3-(1,3-diphenyl-1H-pyrazol-4-yl)propanoate] | 1.1 | 1.0 | 1.8 |  |  |  |
| O=C(Oc1ccc([N+](=O)[O-])cc1[N+](=O)[O-])C(c1ccccc1)c1ccccc1 [fragment 30, 2,4-Dinitrophenyl 2,2-diphenylacetate] | 1.2 | 3.5 | 20.0 |  |  |  |
| O=C(Oc1ccc([N+](=O)[O-])cc1[N+](=O)[O-])c1cc(C(F)(F)F)cc(C(F)(F)F)c1 [fragment 31, 2,4-Dinitrophenyl 3,5-bis(trifluoromethyl)benzoate] | 4.3 | 1.1 | 1.1 |  |  |  |
| Cn1cc(CC(=O)Oc2ccc([N+](=O)[O-])cc2[N+](=O)[O-])c2ccccc21 [fragment 32, 2,4-Dinitrophenyl 2-(1-methyl-1H-indol-3-yl)acetate] | 2.1 | 8.0 | 15.4 |  |  |  |
| COc1cc(CCC(=O)Oc2ccc([N+](=O)[O-])cc2[N+](=O)[O-])cc(OC)c1OC [fragment 33, 2,4-Dinitrophenyl 3-(3,4,5-trimethoxyphenyl)propanoate] | 1.4 | 1.1 | 4.0 |  |  |  |
| O=C(Oc1ccc([N+](=O)[O-])cc1[N+](=O)[O-])C1CCN(C(=O)OCc2ccccc2)CC1 [fragment 34, 1-Benzyl 4-(2,4-dinitrophenyl) piperidine-1,4-dicarboxylate] |  |  |  | 1.1 | 1.1 | 1.1 |
| O=C(Oc1ccc([N+](=O)[O-])cc1[N+](=O)[O-])c1ccc2ccccc2n1 [fragment 35, 2,4-Dinitrophenyl quinoline-2-carboxylate] |  |  |  | 1.3 | 1.1 | 1.2 |
| O=C(Oc1ccc([N+](=O)[O-])cc1[N+](=O)[O-])c1ccc(-c2ccccc2)cc1 [fragment 37, 2,4-Dinitrophenyl [1,1′-biphenyl]-4-carboxylate] |  |  |  | 1.0 | 1.0 | 1.0 |
| O=C(CC12CC3CC(CC(C3)C1)C2)Oc1ccc([N+](=O)[O-])cc1[N+](=O)[O-] [fragment 38, 2,4-Dinitrophenyl 2-(adamantan-1-yl)acetate] |  |  |  | 1.2 | 1.1 | 1.0 |
| O=C(Oc1ccc([N+](=O)[O-])cc1[N+](=O)[O-])c1ccccc1Nc1cccc(C(F)(F)F)c1 [fragment 40, 2,4-Dinitrophenyl 2-((3-(trifluoromethyl)phenyl)amino)benzoate] |  |  |  | 1.1 | 0.8 | 0.9 |
